In PubChem BioAssay (NCI):
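Compound exposure: 48 hours, 5 concentrations, 96-well plates. TGI: concentration producing complete growth inhibition.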

Key:
Assay in all cases: DTP human tumour cell line panel, 48 h
MCF7 breast = tested on: MCF7 breast
MDA-N = tested on: MDA-N
RPMI-8226 leukemia = tested on: RPMI-8226 leukemia
IGROV1 ovarian = tested on: IGROV1 ovarian
RXF 393 renal = tested on: RXF 393 renal
CAKI-1 renal = tested on: CAKI-1 renal
K-562 leukemia = tested on: K-562 leukemia
HOP-92 NSCLC = tested on: HOP-92 NSCLC
SR leukemia = tested on: SR leukemia
MOLT-4 leukemia = tested on: MOLT-4 leukemia
U251 CNS = tested on: U251 CNS
SF-295 CNS = tested on: SF-295 CNS
A549 NSCLC = tested on: A549 NSCLC
HCT-116 colon = tested on: HCT-116 colon
OVCAR-3 ovarian = tested on: OVCAR-3 ovarian
SN12C renal = tested on: SN12C renal
SW-620 colon = tested on: SW-620 colon
UO-31 renal = tested on: UO-31 renal
KM12 colon = tested on: KM12 colon
SK-OV-3 ovarian = tested on: SK-OV-3 ovarian
OVCAR-5 ovarian = tested on: OVCAR-5 ovarian
SK-MEL-28 melanoma = tested on: SK-MEL-28 melanoma
SF-539 CNS = tested on: SF-539 CNS
HL-60(TB) leukemia = tested on: HL-60(TB) leukemia
SK-MEL-2 melanoma = tested on: SK-MEL-2 melanoma
T-47D breast = tested on: T-47D breast
NCI-H460 lung = tested on: NCI-H460 lung
EKVX NSCLC = tested on: EKVX NSCLC
OVCAR-4 ovarian = tested on: OVCAR-4 ovarian
HT29 colon = tested on: HT29 colon
CCRF-CEM leukemia = tested on: CCRF-CEM leukemia
LOX IMVI melanoma = tested on: LOX IMVI melanoma
PC-3 prostate = tested on: PC-3 prostate
UACC-62 melanoma = tested on: UACC-62 melanoma
HOP-62 NSCLC = tested on: HOP-62 NSCLC
SNB-19 CNS = tested on: SNB-19 CNS
MDA-MB-435 = tested on: MDA-MB-435
COLO 205 colon = tested on: COLO 205 colon
DU-145 prostate = tested on: DU-145 prostate
SF-268 CNS = tested on: SF-268 CNS
NCI/ADR-RES ovarian = tested on: NCI/ADR-RES ovarian
NCI-H23 lung = tested on: NCI-H23 lung
M14 melanoma = tested on: M14 melanoma
HCT-15 colon = tested on: HCT-15 colon
ACHN renal = tested on: ACHN renal
HCC-2998 colon = tested on: HCC-2998 colon
UACC-257 melanoma = tested on: UACC-257 melanoma
NCI-H226 lung = tested on: NCI-H226 lung
BT-549 breast = tested on: BT-549 breast
SNB-75 CNS = tested on: SNB-75 CNS
OVCAR-8 ovarian = tested on: OVCAR-8 ovarian
786-0 renal = tested on: 786-0 renal
HS 578T breast = tested on: HS 578T breast
MDA-MB-231 breast = tested on: MDA-MB-231 breast
TK-10 renal = tested on: TK-10 renal

Measured: TGI

Cc1cn(CCCCOC(=O)NC(CCCNC(N)=O)C(=O)O)c(=O)[nH]c1=O (stereo not given)
> 100 µM: all assays above
